Assay results taken from patent publication EP4692071A1, “PHOTOCHROMIC COMPOUND, NAPHTHOL DERIVATIVE, CURABLE COMPOSITION, OPTICAL ARTICLE, LENS, AND EYEGLASS” (TOKUYAMA CORPORATION, priority 2023, dated 2024).
“And” between values parts separate entries of the source, which are not always exact repeats. Equal entries are not always repeated.

Assays:
Assay type in all cases: physicochemical
[1] = Maximum absorption wavelength (λmax) after color development, spectrophotometer MCPD3000; details: after color development
Procedure: (§1) • [1] Maximum Absorption Wavelength (λmax): The maximum absorption wavelength after color development, measured using a spectrophotometer (instantaneous multichannel photodetector MCPD3000) manufactured by Otsuka Electronics Co., Ltd. was used as an indicator for the color tone during the color development. • [2] 23°C Color Optical Density (A23): A difference between an absorbancy measured after light irradiation at 23°C for 240 seconds {ε(240)} and an absorbancy without light irradiation ε(0) at the maximum absorption wavelength was used as an indicator for the color optical density. […] 35°C Color Optical Density (A35): A difference between an absorbancy measured after light irradiation at 35°C for 240 seconds {ε(240)} and an absorbancy without light irradiation ε(0) at the first and second absorption wavelengths was used as an indicator for the color optical density. […] 23°C color fading half-life [τ1/2 (sec.)]: A time required for the absorbancy of the sample at the maximum absorption wavelength to decrease to 1/2 of {ε(240)-ε(0)} when the light irradiation is terminated after the light irradiation at 23°C for 240 seconds, was used as an indicator for the color fading speed. The shorter this time, the higher the color fading speed. • [6] Residual rate (A90/A0×100): The obtained photochromic plastic lens was subjected to accelerated deterioration using a xenon weather meter X25 manufactured by Suga Test Instruments Co., Ltd. for 90 hours. Subsequently, the color optical density was evaluated before and after the test, then a color optical density before the test (A0) and a color optical density after the test (A90) were measured, and a ratio (A90/A0) was defined as a residual rate. The residual rate was used as an indicator for a color developing durability. The higher the residual rate, the higher the color developing durability.

[2] = High-temperature color development rate (A35/A23×100), temperature dependency
Procedure: as §1

[3] = Residual rate (A90/A0×100) after 90 h accelerated deterioration in xenon weather meter X25, color developing durability; details: after 90 h accelerated deterioration
Procedure: as §1

[4] = photochromic cured product, thickness 1 mm (kneading method)
[5] = photochromic laminate prepared by coating method

Compound | Maximum absorption wavelength ([1]; binder sheet (binder method)) [nm] | Maximum absorption wavelength [1, 4] [nm] | Maximum absorption wavelength [1, 5] | A35/A23 *100 ([2]; binder sheet (binder method)) [%] | A35/A23 *100 [2, 4] [%] | A35/A23 *100 [2, 5] | Residual rate ([3]; binder sheet (binder method)) [%] | Residual rate [3, 4] [%] | Residual rate [3, 5] [%]
CCCOc1ccc(C2(c3ccc(OCCC)cc3)C=Cc3c4c(c5cc(N6CCc7ccccc76)c(OC)cc5c3O2)-c2ccc(-c3ccc(C)cc3)cc2C42CCCCCCC2)cc1 [Formula (35A)] | 531 | 535 | 531 nm | 78 | 80 | 78% | 90 | 80 | 75
CCC1(CC)c2cc(C)ccc2-c2c1c1c(c3cc(C)c(N4CCc5ccccc54)cc23)OC(c2ccc(C)cc2)(c2ccc(OC)cc2)C=C1 (stereo not drawn) [Formula (42A)] | 535 | 539 | 535 nm | 75 | 76 | 75% | 85 | 75 | 70
COc1ccc(C2(c3ccc(N4CCOCC4)cc3)C=Cc3c4c(c5cc(N6CCc7ccccc76)c(C)cc5c3O2)-c2ccc(OC)cc2C4(CCCC(F)(F)F)CCCC(F)(F)F)cc1 (stereo not drawn) [Formula (45A)] | – | – | 489 nm and 596 nm | – | – | 67% | – | – | 65
CCCCCCOc1ccc(C2(c3ccc(OCCCCCC)cc3)C=Cc3c4c(c5cc(N6CCc7cc(OC)ccc76)c(OC)cc5c3O2)-c2ccc(-c3ccc(C(F)(F)F)cc3)cc2C42CC(C)(C)CC(C)(C)C2)cc1 [Formula (48A)] | 539 | – | 539 nm | 62 | – | 62% | 84 | – | 69
CCCOc1ccc(C2(c3ccc(OCCC)cc3)C=Cc3c4c(c5cc(N6CCc7cc(C(F)(F)F)ccc76)c(OC)cc5c3O2)-c2ccccc2C4(CCC)CCC)cc1 [Formula (54A)] | – | – | 592 nm and 486 nm | – | – | 66% and 67% | – | – | 69
COc1ccc(C2(c3ccc(N(c4ccccc4)c4ccccc4)cc3)C=Cc3c4c(c5cc(N6CCc7ccccc76)c(OC)cc5c3O2)-c2ccccc2C42CCC3(CCCCC3)CC2)cc1 (stereo not drawn) [Formula (57A)] | 548 | – | 548 nm | 70 | – | 70% | 80 | – | 65
CCC1(CC)CCC2(CC1)c1cc(-c3ccccc3)ccc1-c1c2c2c(c3cc(OC)c(N4CCc5ccccc54)cc13)OC(c1ccc(C)cc1)(c1ccc(N(C)c3ccccc3)cc1)C=C2 (stereo not drawn) [Formula (60A)] | – | – | 535 nm and 595 nm | – | – | 71% | – | – | 69
COc1ccc(C2(c3ccc(OC)c(OC)c3)C=Cc3c4c(c5cc(N6CCc7ccccc76)c(OC)cc5c3O2)-c2ccccc2C4(CCC(F)(F)F)CCC(F)(F)F)cc1 (stereo not drawn) [Formula (67A)] | 527 | 531 | 527 nm | 66 | 67 | 66% | 83 | 75 | 73
CCCC1(C)c2cc(Oc3ccccc3)ccc2-c2c1c1c(c3cc(OC)c(N4CCc5ccccc54)cc23)OC(c2ccc(OC)cc2)(c2ccc3c(c2)CCO3)C=C1 (stereo not drawn) [Formula (70A)] | 535 | 540 | 536 nm | 77 | 78 | 77% | 82 | 77 | 71
CCC1(CC)CCC2(CC1)c1cc(OC(F)(F)F)ccc1-c1c2c2c(c3cc(OC)c(N4CCc5ccccc54)cc13)OC(c1ccc(OC)cc1)(c1ccc(OCCCO[Si](C)(C)CC[Si](O[Si](C)(C)C)(O[Si](C)(C)C)O[Si](C)(C)C)cc1)C=C2 (stereo not drawn) [Formula (74A)] | 522 | 526 | 522 nm | 64 | 65 | 64% | 83 | 77 | 72
CCCOc1ccc(C2(c3ccc(OC)cc3)C=Cc3c4c(c5cc(N6CCc7ccccc76)c(C)cc5c3O2)-c2ccc(-c3ccc(F)c(F)c3F)cc2C4(CCCCOC)CCCCOC)cc1F (stereo not drawn) [Formula (78A)] | 523 | – | 524 nm | 68 | – | 68% | 82 | – | 64

Results, then the compound that gave them:

Maximum absorption wavelength ([1]; binder sheet (binder method)) [nm] | Maximum absorption wavelength [1, 4] [nm] | Maximum absorption wavelength [1, 5] | A35/A23 *100 ([2]; binder sheet (binder method)) [%] | A35/A23 *100 [2, 4] [%] | A35/A23 *100 [2, 5] | Residual rate ([3]; binder sheet (binder method)) [%] | Residual rate [3, 4] [%] | Residual rate [3, 5] [%] | Compound
532 | 536 | 532 nm | 74 | 75 | 74% | 88 | 79 | 74 | COc1ccc(C2(c3ccc(OC)cc3)C=Cc3c4c(c5cc(N6CCc7ccccc76)c(OC)cc5c3O2)-c2ccccc2C4(C)C)cc1 [Formula (28A)]
533 | 537 | 533 nm | 75 | 76 | 75% | 85 | 76 | 71 | COCCCC1(CCCOC)c2ccccc2-c2c1c1c(c3cc(OC)c(N4CC(C)c5ccccc54)cc23)OC(c2ccc(OC)cc2)(c2ccc(OC)cc2)C=C1 (stereo not drawn) [Formula (39A)]
522 | 526 | 522 nm | 70 | 71 | 70% | 84 | 76 | 70 | COCCOCCOCCC1(CCOCCOCCOC)c2ccccc2-c2c1c1c(c3cc(OC)c(N4CCc5cc(F)ccc54)cc23)OC(c2ccc(OC)cc2)(c2ccc(OC)cc2)C=C1 [Formula (50A)]
535 | 539 | 535 nm | 75 | 76 | 75% | 92 | 82 | 76 | COc1ccc(C2(c3ccc(OC)cc3)C=Cc3c4c(c5cc(N6CCc7cc(C)ccc76)c(OC)cc5c3O2)-c2ccccc2C4(C)C)cc1 [Formula (52A)]
522 | 526 | 522 nm | 72 | 73 | 71% | 84 | 74 | 71 | COc1ccc(C2(c3ccc(OC)cc3)C=Cc3c4c(c5cc(N6CCc7ccccc76)c(-c6ccc(OC)cc6OC)cc5c3O2)-c2ccccc2C4(C)C)cc1 [Formula (I), reference compound]
